Structures can show the parent of a compound that is named as a salt. Where two headings read alike, the source gives them in different places.
Key:
[1] = molecular target: T1, SARS-CoV-2 PLpro (nsp3 1564–1878) (Severe acute respiratory syndrome coronavirus 2, UniProt P0DTD1); experiment: biochemical; parameters: FRET-quenched peptide (Pro3) cleavage by PLpro, 10 min pre-incubation, slope over 20 min, normalised to no-compound control; conditions: read-out: % of control remaining
[2] = molecular target: T1, SARS-CoV-2 PLpro (nsp3 1564–1878); experiment: biochemical; parameters: FRET-quenched peptide (Pro3) cleavage by PLpro, 10 min pre-incubation, slope over 20 min, normalised to no-compound control; conditions: read-out: % of control remaining; remark: listed apart in the source

CN1CCN(c2nc(C3=C(c4c[nH]c5ccccc45)C(=O)NC3=O)c3ccccc3n2)CC1 [Sotrastaurin (AEB071)]
remaining activity at 3.75 µM ([1]; Well no.=4747, high concentration screen): 109% | remaining activity at 1.25 µM ([2]; Well no.=4747, low concentration screen): 105%

C[C@@H]1CN(c2c(F)c(N)c3c(=O)c(C(=O)O)cn(C4CC4)c3c2F)C[C@H](C)N1 [Sparfloxacin]
remaining activity at 3.75 µM ([1]; Well no.=2251, high concentration screen): 97.4% | remaining activity at 1.25 µM ([2]; Well no.=2251, low concentration screen): 95.3%

CNC1C(O)C(NC)C2OC3(O)C(=O)CC(C)OC3OC2C1O (centres unmarked) [Spectinomycin.2HCl]
remaining activity at 3.75 µM ([1]; Well no.=1587, high concentration screen): 101% | remaining activity at 1.25 µM ([2]; Well no.=1587, low concentration screen): 101%

CN[C@@H]1[C@H](O)[C@H](NC)[C@H]2O[C@@]3(O)C(=O)C[C@@H](C)O[C@H]3O[C@@H]2[C@H]1O [Spectinomycin]
remaining activity at 3.75 µM ([1]; Well no.=3174, high concentration screen): 110% | remaining activity at 1.25 µM ([2]; Well no.=3174, low concentration screen): 103%

NCCCCNCCCN [Spermidine trihydrochloride]
remaining activity at 3.75 µM ([1]; Well no.=1168, high concentration screen): 104% | remaining activity at 1.25 µM ([2]; Well no.=1168, low concentration screen): 102%

NCCCCNCCCN [Spermidine]
remaining activity at 3.75 µM ([1]; Well no.=7069, high concentration screen): 105% | remaining activity at 1.25 µM ([2]; Well no.=7069, low concentration screen): 107%

NCCCNCCCCNCCCN [Spermine tetrahydrochloride]
remaining activity at 3.75 µM ([1]; Well no.=1312, high concentration screen): 101% | remaining activity at 1.25 µM ([2]; Well no.=1312, low concentration screen): 100%

CCCCCCCCCCCCC/C=C/[C@@H](O)[C@@H](N)CO [Sphingosine]
remaining activity at 3.75 µM ([1]; Well no.=1172, high concentration screen): 104% | remaining activity at 3.75 µM ([1]; Well no.=4361, high concentration screen): 93.6% | remaining activity at 1.25 µM ([2]; Well no.=4361, low concentration screen): 101%

O=C(CCCN1CCC2(CC1)C(=O)NCN2c1ccccc1)c1ccc(F)cc1 [Spiperone hydrochloride]
remaining activity at 3.75 µM ([1]; Well no.=1268, high concentration screen): 105% | remaining activity at 1.25 µM ([2]; Well no.=1268, low concentration screen): 105%

CC(=O)S[C@@H]1CC2=CC(=O)CC[C@]2(C)[C@H]2CC[C@@]3(C)[C@@H](CC[C@@]34CCC(=O)O4)[C@H]12 [Spironolactone]
remaining activity at 3.75 µM ([1]; Well no.=1266, high concentration screen): 93.5% | remaining activity at 3.75 µM ([1]; Well no.=2253, high concentration screen): 82.7% | remaining activity at 1.25 µM ([2]; Well no.=1266, low concentration screen): 97.8% | remaining activity at 1.25 µM ([2]; Well no.=2253, low concentration screen): 93%

O=C1NCN(c2ccccc2)C12CCN(CC1COc3ccccc3O1)CC2 (centres unmarked) [Spiroxatrine]
remaining activity at 3.75 µM ([1]; Well no.=1277, high concentration screen): 102% | remaining activity at 1.25 µM ([2]; Well no.=1277, low concentration screen): 99.7%

O=C1CCc2c(ccc3ccccc23)O1 [Splitomicin]
remaining activity at 3.75 µM ([1]; Well no.=5525, high concentration screen): 120% | remaining activity at 1.25 µM ([2]; Well no.=5525, low concentration screen): 105%

CC(C)=CCC/C(C)=C/CC/C(C)=C/CC/C=C(\C)CC/C=C(\C)CCC=C(C)C [Squalene]
remaining activity at 3.75 µM ([1]; Well no.=7255, high concentration screen): 96.6% | remaining activity at 1.25 µM ([2]; Well no.=7255, low concentration screen): 98.6%

COc1cc2ncnc(Nc3ccc(Oc4ccccc4)cc3)c2cc1OC [Src Kinase Inhibitor I]
remaining activity at 3.75 µM ([1]; Well no.=2563, high concentration screen): 99.3% | remaining activity at 1.25 µM ([2]; Well no.=2563, low concentration screen): 99.2%

C[N+]1(C)CCC[C@H]1C(=O)[O-] [Stachydrine hydrochloride]
remaining activity at 3.75 µM ([1]; Well no.=8032, high concentration screen): 96.9% | remaining activity at 1.25 µM ([2]; Well no.=8032, low concentration screen): 98.3%

C[N+]1(C)CCC[C@H]1C(=O)[O-] [Stachydrine]
remaining activity at 3.75 µM ([1]; Well no.=6917, high concentration screen): 93.7% | remaining activity at 3.75 µM ([1]; Well no.=7414, high concentration screen): 102% | remaining activity at 1.25 µM ([2]; Well no.=6917, low concentration screen): 109% | remaining activity at 1.25 µM ([2]; Well no.=7414, low concentration screen): 104%

C[C@]12Cc3c[nH]nc3C[C@@H]1CC[C@@H]1[C@@H]2CC[C@@]2(C)[C@H]1CC[C@]2(C)O [Stanozolol]
remaining activity at 3.75 µM [1]: 95.3% | remaining activity at 1.25 µM [2]: 94%

O=[N+]([O-])c1ccc2c(c1)S(=O)(=O)C=C2 [Stattic]
remaining activity at 3.75 µM ([1]; Well no.=4748, high concentration screen): 104% | remaining activity at 1.25 µM ([2]; Well no.=4748, low concentration screen): 104%

CN[C@@H]1C[C@H]2O[C@@](C)([C@@H]1OC)n1c3ccccc3c3c4c(c5c6ccccc6n2c5c31)C(=O)NC4 [Staurosporine, Streptomyces sp.]
remaining activity at 3.75 µM ([1]; Well no.=2656, high concentration screen): 95% | remaining activity at 3.75 µM ([1]; Well no.=2661, high concentration screen): 84.8% | remaining activity at 1.25 µM ([2]; Well no.=2656, low concentration screen): 94.8% | remaining activity at 1.25 µM ([2]; Well no.=2661, low concentration screen): 89.3%

Cc1cn([C@H]2C=C[C@@H](CO)O2)c(=O)[nH]c1=O [Stavudine]
remaining activity at 3.75 µM ([1]; Well no.=7916, high concentration screen): 96.8% | remaining activity at 1.25 µM ([2]; Well no.=7916, low concentration screen): 99.6%

COc1cc2ncnc(Nc3ccc(Cl)cc3Cl)c2cc1OC [Ste11 MAPKKK Activation Inhibitor]
remaining activity at 3.75 µM ([1]; Well no.=2673, high concentration screen): 99.8% | remaining activity at 1.25 µM ([2]; Well no.=2673, low concentration screen): 96.8%

CCCCCCCCCCCCCCCCCC(=O)O [Stearic acid]
remaining activity at 3.75 µM ([1]; Well no.=6963, high concentration screen): 102% | remaining activity at 1.25 µM ([2]; Well no.=6963, low concentration screen): 98.8%

CC(C)n1cnc2c(NCCc3ccc(O)cc3)nc(-c3csc4ccccc34)nc21 [StemRegenin 1]
remaining activity at 3.75 µM ([1]; Well no.=4827, high concentration screen): 98.2% | remaining activity at 1.25 µM ([2]; Well no.=4827, low concentration screen): 101%

CN[C@@H]1[C@H](O[C@H]2[C@H](O[C@H]3[C@H](O)[C@@H](O)[C@H](N=C(N)N)[C@@H](O)[C@@H]3N=C(N)N)O[C@@H](C)[C@]2(O)C=O)O[C@@H](CO)[C@H](O)[C@H]1O [Streptomycin]
remaining activity at 3.75 µM ([1]; Well no.=2285, high concentration screen): 97.7% | remaining activity at 1.25 µM ([2]; Well no.=2285, low concentration screen): 97.7%

COC1=C(N)C(=O)c2nc(-c3nc(C(=O)O)c(C)c(-c4ccc(OC)c(OC)c4O)c3N)ccc2C1=O [Streptonigrin]
remaining activity at 3.75 µM ([1]; Well no.=3304, high concentration screen): 96.9% | remaining activity at 1.25 µM ([2]; Well no.=3304, low concentration screen): 96.9%

CN(N=O)C(=O)N[C@@H](C=O)[C@@H](O)[C@H](O)[C@H](O)CO [Streptozocin]
remaining activity at 3.75 µM ([1]; Well no.=3317, high concentration screen): 103% | remaining activity at 1.25 µM ([2]; Well no.=3317, low concentration screen): 100%

O=C(O)CCC(=O)O [Succinic acid]
remaining activity at 3.75 µM ([1]; Well no.=7353, high concentration screen): 106% | remaining activity at 1.25 µM ([2]; Well no.=7353, low concentration screen): 106%

C[N+](C)(C)CCOC(=O)CCC(=O)OCC[N+](C)(C)C [Succinylcholine chloride]
remaining activity at 3.75 µM ([1]; Well no.=1318, high concentration screen): 103% | remaining activity at 3.75 µM ([1]; Well no.=6064, high concentration screen): 96.6% | remaining activity at 1.25 µM ([2]; Well no.=1318, low concentration screen): 103% | remaining activity at 1.25 µM ([2]; Well no.=6064, low concentration screen): 99%

C[N+](C)(C)CCOC(=O)CCC(=O)OCC[N+](C)(C)C [Succinylcholine]
remaining activity at 3.75 µM ([1]; Well no.=2294, high concentration screen): 95.9% | remaining activity at 1.25 µM ([2]; Well no.=2294, low concentration screen): 90.2%

O=C(O)CCC(=O)Nc1ccc(S(=O)(=O)Nc2nccs2)cc1 [Succinylsulfathiazole]
remaining activity at 3.75 µM ([1]; Well no.=8034, high concentration screen): 89.7% | remaining activity at 1.25 µM ([2]; Well no.=8034, low concentration screen): 89.3%

Oc1ccc2ccccc2c1N=Nc1ccc(N=Nc2ccccc2)cc1 [Sudan III]
remaining activity at 3.75 µM ([1]; Well no.=8024, high concentration screen): 93.4% | remaining activity at 1.25 µM ([2]; Well no.=8024, low concentration screen): 93.7%

Nc1ccc(S(=O)(=O)NC(=O)c2ccccc2)cc1 [Sulfabenzamide]
remaining activity at 3.75 µM ([1]; Well no.=7306, high concentration screen): 102% | remaining activity at 1.25 µM ([2]; Well no.=7306, low concentration screen): 103%

NC(=O)NS(=O)(=O)c1ccc(N)cc1 [Sulfacarbamide]
remaining activity at 3.75 µM ([1]; Well no.=7502, high concentration screen): 98.8% | remaining activity at 1.25 µM ([2]; Well no.=7502, low concentration screen): 96.2%

CC(=O)NS(=O)(=O)c1ccc(N)cc1 [Sulfacetamide (Sodium)]
remaining activity at 3.75 µM ([1]; Well no.=7510, high concentration screen): 102% | remaining activity at 1.25 µM ([2]; Well no.=7510, low concentration screen): 103%

Source: paper PMC8286840, “Identifying SARS-CoV-2 antiviral compounds by screening for small molecule inhibitors of Nsp3 papain-like protease” (Biochemical Journal, 2021)
